This note sets out measurements from US4337260A, “Imidazopyridine-spiro-piperidine compounds” (Yoshitomi Pharmaceutical Industries, Ltd., priority 1981, dated 1982).

A short description of one data set: Cataleptogenic activity. The conditions noted are these: rat, in vivo, ip; Wistar female rats; from total points of the maximum appearance of catatonia; read-out: Cataleptogenic Activity ED50. The protocol: (2) Cataleptogenic Activity
The test was performed according to the method described by W. Wirth et al. in "Archives Internationales de Pharmacodynamie et de Therapie", vol, 115, 1 ff (1958).
Groups of 5 Wistar female rats each were used. […] The ED50 was determined from total points of the maximum appearance of catatonia.

In data set [1] the test system is apomorphine-induced vomiting. Put plainly: Effect on apomorphine-induced vomiting. Type of data set: in vivo. Conditions: Canis lupus familiaris, po, 2 hours prior to apomorphine hydrochloride (0.1 mg/kg, s.c.); beagle dogs; vomiting checked for 2 hours. The protocol: (1) Effect on apomorphine-induced vomiting
The test was performed according to the method described by M. Nakanishi et al. in "Arzneimittel-Forschung", vol. 21, 391 ff (1971).
Groups of 5-10 beagle dogs of both sexes each were used. The test compound was administered orally 2 hours prior to the treatment with apomorphine hydrochloride (0.1 mg/kg, s.c.). The incidence of vomiting was checked for 2 hours, and the ED50 (50% effective dose) was determined.

Regarding `CN(C)CCCN1c2ccccc2Sc2ccc(Cl)cc21` [Chlorpromazine, reference compound], the TD50 in the data set “Cataleptogenic activity” amounted to 12 mg/kg. The 50% effect level in data set [1] (ED50) was put at a dose of 5.1 mg/kg.
The matching figures for `Cl.Cl.O.O=C1NC2CCCCN2C12CCN(CCCN1c3ccccc3CCc3ccccc31)CC2` (centres unmarked) [Test Compound A, 1'-[3-(10,11-dihydro-5H-dibenzo[b,f]azepin-5-yl)propyl]-1,2,3,5,6,7,8,8a-octahydro-2-oxo-imidazo[1,2-a]pyridine-3-spiro-4'-piperidine dihydrochloride monohydrate]: over 50 mg/kg and 2.5 mg/kg.
The matching figures for `Cl.Cl.O.O=C1NC2CCCCN2C12CCN(CCCN1c3ccccc3CCc3ccc(Cl)cc31)CC2` (centres unmarked) [Test Compound B, 1'-[3-(3-chloro-10,11-dihydro-5H-dibenz[b,f]azepin-5yl)propyl]-1,2,3,5,6,7,8,8a-octahydro-2-oxo-imidazo[1,2-a]pyridine-3spiro-4'-piperidine dihydrochloride monohydrate]: over 50 mg/kg and 0.5 mg/kg.
For `Cl.Cl.O.O=C1N=C2CCCCN2C12CCN(CCCN1c3ccccc3CCc3ccccc31)CC2` [Test Compound C, 1'-[3-(10,11-dihydro-5H-dibenz[b,f]azepin-5-yl)propyl]-2,3,5,6,7,8-hexahydro-2-oxo-imidazo[1,2-a]pyridine-3-spiro-4'-piperidine dihydrochloride monohydrate], the TD50 in “Cataleptogenic activity” is over 50 mg/kg. Also, in data set [1], it took a dose of 2 mg/kg to reach the 50% effect level (ED50).

In general, ED50 refers to the midpoint of the dose-response relation. Low readings indicate greater potency, high ones weaker potency.
